Results: publication PMC9025269, “Synthesis and Anti-Hepatitis B Activities of 3′-Fluoro-2′-Substituted Apionucleosides” (Molecules, 2022)
Like-named read-outs stand apart in the source and are kept apart here.

Tests used:
HBV [1] = settings: racemic compounds; read-out: EC50 HBV in vitro; cited from earlier work
HBV [2] = experiment: HBV replication assay with HepG2.117 cells (qPCR of HBV DNA in supernatant); assay type: cell-based, Hepatitis B virus; settings: for EC50: Hepatitis B virus, HepG2.117 cells, 96 h, mean ± SD (n); for anti-HBV activity: cell-based assay
[3] = system: VSV-G pseudotyped HIV NL4-3; experiment: microbe, parasite or virus in culture; assay type: cell-based; settings: for EC50: Human immunodeficiency virus 1, NL43, CCRF-CEM, 72 h, read-out: HIV EC50
[4] = Cell cytotoxicity against HepG2 cells (CellTiter-Glo, 96 h); assay type: cell-based, human; settings: human
Method: (§1) In parallel, cell cytotoxicity (CC50) against HepG2 cells was measured using a luminescent cell viability assay to determine the number of viable cells in the culture based on quantitation of the adenosine triphosphate (ATP) present after a 4-day incubation period. On the first day, HepG2 cells were seeded at 15,000 cells per 100 µL per well with assay media containing DEME (Corning, cat#10-013-CV), 3% FBS (Coning, cat#35-011-CV), 1× penicillin/streptomycin and 1× Non-essential Amino Acid in Biocoat collagen-coated 96-well flat bottom plates. Cells were incubated in a 37 °C, 5% CO2 incubator for 4 h before compound dosing. The compound dilution and dosing procedure were identical to that for the determination of anti-HBV activity. After 96 h incubation, CellTiter-Glo® reagent (Promega, Madison, WI, USA) was added to each well and incubated for 10 min at RT. Luminescence was measured on a Victor X3 multi-label plate reader. Cell viability is normalized to the level observed in the absence of an inhibitor, which was defined as 100%.

in vitro = settings: human
HBV polymerase = molecular target: T1, HBV polymerase (Hepatitis B virus genotype D subtype ayw, UniProt P03156); experiment: HBV polymerase RdDp activity assay; assay type: biochemical; settings: read-out: HBV pol IC50
T1 construct: Recombinant HBV polymerase (Hepatitis B virus genotype D subtype ayw, full length); made in house; host or cells: Sf9 insect cells (baculovirus)
Text: (§2) HIV-1 reverse transcriptase (HIV-1 RT) was purchased from Abcam (cat#ab63979). Recombinant HBV polymerase (Hepatitis B virus genotype D subtype ayw, full length) was cloned using the baculovirus system, expressed in sf9 cells, and purified with similar strategy and methods described by Lanford et al.. A DNA primer (5′-[…]-3′) was synthesized by IDTDNA and a 358-nt RNA template was synthesized in-house using Megascript T7 transcription kit (ThermoFisher, cat#AM1334). dNTPs were purchased from Thermo Fisher and ^3H-dTTP from Perkin Elmer. Filter plates were purchased from Millipore (cat#MABN0V050) and microscint-20 was purchased from Perkin Elmer (cat#6013621).
The RdDp activity of HBV polymerase was measured similarly as described for the HIV-1 RT. To test compound inhibition effect, the reactions were performed at 30 °C for 120 min in a reaction mixture containing reaction buffer (50 mM Tris-Cl, pH 7.5, 100 mM KCl, 12.5 mM MgCl2, 4 mM DTT), 15 µg/mL polymerase, 0.5 µM DNA primer, 0.05 µM RNA template, 10% DMSO, 0.046 µM dATP, 0.057 µM dGTP, 0.017 µM dCTP, 0.32 µM ^3H-dTTP, and compounds at various concentrations.
All data were analyzed with GraphPad Prism. […]

[5] = molecular target: T2, HIV-1 reverse transcriptase (HIV-1 RT) (Human immunodeficiency virus type 1 group M subtype B, UniProt P03366); experiment: HIV-1 reverse transcriptase RdDp activity assay; assay type: biochemical
T2 construct: HIV-1 reverse transcriptase (HIV-1 RT) was purchased from Abcam (cat#ab63979); purchased Abcam ab63979
Text: as §2
The RNA-dependent DNA polymerization (RdDp) activity of HIV-1 RT was measured by the incorporation of radioactively labeled nucleotides by HIV-1 RT into acid-insoluble DNA products from the DNA primer primed RNA template. To test compound inhibition, the reactions were performed at 30 °C for 40 min in a reaction mixture containing reaction buffer (50 mM Tris-Cl, pH 7.5, 100 mM KCl, 12.5 mM MgCl2, 4 mM DTT), 1 nM HIV-1 RT, 0.1 µM DNA primer, 0.02 µM RNA template, 10% DMSO, 0.1 µM dATP, 1 µM dGTP, 0.1 µM dCTP, 0.32 µM ^3H-dTTP, and compounds at various concentrations. The 50 µL reactions were performed in 96-well plates. The reactions were quenched with a 60 µL cold mixture of 20% (w/v) TCA and 0.5 mM ATP and incubated at 4 °C for 1 h. The reactions were loaded onto 96-well filter plates. The filters on plates were washed three times with 10% TCA and once with 70% ethanol on a Millipore plate wash station with vacuum applied. The filters on the plate were air-dried and 40 μL Microscint-20 was added to each well. The acid-precipitated tritiated DNA products retained on the filters were detected by a Trilux MicroBeta scintillation reader (Perkin Elmer).
All data were analyzed with GraphPad Prism. The compound concentration at which the enzyme-catalyzed rate was reduced by 50% (IC50) was calculated by fitting the data to the equation Y = % Min + (% Max − % Min) / (1 + 10^((logIC50-X)*h)), where Y corresponds to the percent inhibition to the enzyme activity, % Min is the residual inhibition activity without compound, % Max is the maximum inhibition of enzyme activity at saturating compound concentration, and X corresponds to the log of compound concentrations, and h is the hillslope.

HepG2 cells = experiment: Cell cytotoxicity against HepG2 cells (CellTiter-Glo, 96 h); assay type: cell-based, human; settings: at highest tested concentrations; HepG2 and CEM cells (Table 1)
Method: as §1

[6] = HepG2 cells, 96 h, read-out: HBV CC50

T1 sequence (P03156 whole entry): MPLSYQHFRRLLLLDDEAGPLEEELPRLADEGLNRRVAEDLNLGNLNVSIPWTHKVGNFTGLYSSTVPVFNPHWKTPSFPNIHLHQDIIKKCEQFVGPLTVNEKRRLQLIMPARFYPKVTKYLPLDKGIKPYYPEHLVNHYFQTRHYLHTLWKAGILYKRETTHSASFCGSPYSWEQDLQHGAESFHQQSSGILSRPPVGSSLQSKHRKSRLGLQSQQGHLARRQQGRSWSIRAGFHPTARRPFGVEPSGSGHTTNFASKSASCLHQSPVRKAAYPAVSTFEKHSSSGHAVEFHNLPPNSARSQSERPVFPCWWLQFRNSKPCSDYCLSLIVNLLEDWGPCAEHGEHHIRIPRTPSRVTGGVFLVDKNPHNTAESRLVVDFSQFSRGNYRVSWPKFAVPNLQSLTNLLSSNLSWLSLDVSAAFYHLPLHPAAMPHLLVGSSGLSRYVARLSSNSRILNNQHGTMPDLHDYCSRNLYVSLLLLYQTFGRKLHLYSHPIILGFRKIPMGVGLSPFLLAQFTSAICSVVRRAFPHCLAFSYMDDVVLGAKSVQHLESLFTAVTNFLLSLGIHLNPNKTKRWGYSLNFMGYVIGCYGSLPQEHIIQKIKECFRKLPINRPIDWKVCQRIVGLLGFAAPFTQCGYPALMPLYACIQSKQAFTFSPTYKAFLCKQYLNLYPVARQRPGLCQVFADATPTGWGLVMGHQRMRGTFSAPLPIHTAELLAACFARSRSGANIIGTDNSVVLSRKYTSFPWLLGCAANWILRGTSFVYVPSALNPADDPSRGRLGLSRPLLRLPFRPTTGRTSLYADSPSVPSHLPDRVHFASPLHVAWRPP

Row | SMILES | EC50 (HBV [2]) | EC50 [3] | CC50 (in vitro) | anti-HBV activity (HBV [2]) | cytotoxicity (HepG2 cells) | further results
1 | Nc1ccn([C@H]2C[C@@](F)(CO)CO2)c(=O)n1 (relative stereo) [Compound 2c] | – | – | – | – | – | EC50 (HBV [1]): 11 nM
2 | Nc1nc(=O)n([C@H]2C[C@@](F)(CO)CO2)cc1F (relative stereo) [Compound 2d] | – | – | – | – | – | EC50 (HBV [1]): 800 nM
3 | O=c1[nH]c(=O)n([C@H]2C[C@](F)(CO)CO2)cc1I (relative stereo) [Compound 3b] | – | – | – | – | – | EC50 (HBV [1]): 800 nM
4 | C=C1[C@H](CO)[C@@H](O)C[C@@H]1n1cnc2c(=O)[nH]c(N)nc21 [Compound 1, entecavir, reference compound] | 3 ± 2.4 nM | 1240 nM | – | – | – | CC50 at 96 h [4]: > 100000 nM
5 | C=C1[C@H](COP(=O)(N[C@@H](C)C(=O)OC(C)C)Oc2ccccc2)[C@@H](O)C[C@@H]1n1cnc2c(=O)[nH]c(N)nc21 (some centres unmarked) [Compound 1-PD, reference compound] | 31 ± 20 nM | > 20000 nM | > 20000 nM | – | – | CC50 at 96 h [4, 6]: > 10000 nM
6 | C=C1[C@H](COP(=O)(O)OP(=O)(O)OP(=O)(O)O)[C@@H](O)C[C@@H]1n1cnc2c(=O)[nH]c(N)nc21 [Compound 1-TP, reference compound] | – | – | – | – | – | IC50 (HBV polymerase): 14 ± 3 nM; IC50 [5]: 320 nM
7 | Nc1ncnc2c1ncn2[C@@H]1OC[C@](F)(CO)[C@H]1O [Compound 4, (2R,3S,4R)-2-(6-Amino-9H-purin-9-yl)-4-fluoro-4-(hydroxymethyl)tetrahydrofuran-3-ol] | > 100000 nM | > 33000 nM | > 33000 nM | Neither 4 nor its prodrug 24 showed any anti-HBV activity | None of the tested apionucleosides 4 and 5 or apionucleoside prodrugs 24 and 39 showed any cytotoxicity | CC50 at 96 h [4]: > 100000 nM
8 | Nc1ncnc2c1ncn2[C@@H]1OC[C@](F)(CO)[C@H]1CO [Compound 5, ((2R,3S,4R)-2-(6-Amino-9H-purin-9-yl)-4-fluorotetrahydrofuran-3,4-diyl)dimethanol] | > 10000 nM | > 33000 nM | > 33000 nM | did not show any anti-HBV activity | None of the tested apionucleosides 4 and 5 or apionucleoside prodrugs 24 and 39 showed any cytotoxicity | CC50 at 96 h [4]: > 10000 nM
9 | Nc1ncnc2c1ncn2[C@@H]1OC[C@](F)(COP(=O)(O)OP(=O)(O)OP(=O)(O)O)[C@H]1O [Compound 23, ((3S,4S,5R)-5-(6-Amino-9H-purin-9-yl)-3-fluoro-4-hydroxytetrahydrofuran-3-yl)methyl triphosphate] | – | – | – | – | – | IC50 [5]: 4200 nM
10 | CC(C)OC(=O)[C@H](C)NP(=O)(OC[C@@]1(F)CO[C@@H](n2cnc3c(N)ncnc32)[C@@H]1O)Oc1ccccc1 (stereo partly drawn) [Compound 24, Isopropyl ((((3S,4S,5R)-5-(6-amino-9H-purin-9-yl)-3-fluoro-4-hydroxytetrahydrofuran-3-yl)methoxy)(phenoxy)phosphoryl)-L-alaninate] | > 10000 nM | > 33000 nM | > 33000 nM | Neither 4 nor its prodrug 24 showed any anti-HBV activity | None of the tested apionucleosides 4 and 5 or apionucleoside prodrugs 24 and 39 showed any cytotoxicity | CC50 at 96 h [4, 6]: > 10000 nM
11 | CC(C)OC(=O)[C@H](C)NP(=O)(OC[C@@]1(F)CO[C@@H](n2cnc3c(N)ncnc32)[C@@H]1CO)Oc1ccccc1 (stereo partly drawn) [Compound 39, Isopropyl ((((3S,4S,5R)-5-(6-amino-9H-purin-9-yl)-3-fluoro-4-(hydroxymethyl)tetrahydro-furan-3-yl)methoxy)(phenoxy)phosphoryl)-L-alaninate] | 7.8 ± 3.5 nM | 300 nM | > 33000 nM | strong inhibition of HBV | None of the tested apionucleosides 4 and 5 or apionucleoside prodrugs 24 and 39 showed any cytotoxicity | anti-HIV activity [3]: showed anti-HIV activity; CC50 at 96 h [4, 6]: > 10000 nM
